The record followed here is patent publication US7910622B2, “Modulation of bacterial quorum sensing with synthetic ligands” (Wisconsin Alumni Research Foundation, priority 2007, dated 2011).

Several values for one entry are separate records, joined by “and”; a condition that tells them apart may be missing. Equal values may be shown once.

In one series the target is T1, TraR (Agrobacterium tumefaciens, UniProt P33905).
T1 construct: These strains lack their AHL synthase (I) genes, but retain their native R genes; endogenous in cells; host or cells: A. tumefaciens WCF47 (Δ-traI) with PtraI-lacZ plasmid pCF372
T1 sequence (P33905 whole entry): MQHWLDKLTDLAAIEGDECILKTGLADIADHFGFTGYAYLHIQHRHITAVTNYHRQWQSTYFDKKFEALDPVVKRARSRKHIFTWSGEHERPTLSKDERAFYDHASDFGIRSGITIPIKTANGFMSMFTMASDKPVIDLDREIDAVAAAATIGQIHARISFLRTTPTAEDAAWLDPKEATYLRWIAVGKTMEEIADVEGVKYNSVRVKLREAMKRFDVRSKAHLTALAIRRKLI
The series can be described thus: cell-based.

The target in series [1] is T2, LuxR (Aliivibrio fischeri, UniProt P35327).
T2 construct: a Δ-luxI derivative of V. fischeri ES114, in which the native lux operon behaves as the bioluminescent reporter; endogenous in cells; host or cells: V. fischeri ES114 (Δ-luxI)
T2 sequence (P35327 whole entry): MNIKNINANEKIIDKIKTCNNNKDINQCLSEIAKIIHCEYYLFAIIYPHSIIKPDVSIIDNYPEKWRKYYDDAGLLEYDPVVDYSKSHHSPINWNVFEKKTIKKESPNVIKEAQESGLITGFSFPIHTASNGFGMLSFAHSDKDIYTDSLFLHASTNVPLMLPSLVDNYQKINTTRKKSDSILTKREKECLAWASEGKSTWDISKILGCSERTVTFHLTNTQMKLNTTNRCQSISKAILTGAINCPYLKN
Kind of series: cell-based. Format: cell-based, Vibrio fischeri. In short, it runs like this: (§1)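 Whole-cell luminescence reporter in V. fischeri ES114 (WT, Δ-luxI or Δ-luxR) or E. coli, overnight cultures diluted 1:10 and grown with compound at RT (E. coli 30° C) to OD600 0.35-0.4 (4-6 h). Luminescence normalized to cell density, triplicates; EC50/IC50 from sigmoidal fit.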

Series [2] has as its target QscR:DNA binding (PA1897 promoter) (Pseudomonas aeruginosa, UniProt G3XD77). To be noted: EMSA. The text has this: We sought to obtain further insights into the mechanism of QscR modulation by non-native AHLs. […] We therefore performed electromobility shift assays (EMSA) on purified QscR and radiolabeled PA1897 promoter in the presence of selected QscR antagonists and 1.

For series [3], the target named is T3, LasR (Pseudomonas aeruginosa, UniProt P25084).
T3 construct: expressed in transfected cells; host or cells: E. coli DH5α (pJN105L pSC11), arabinose-induced
T3 sequence (P25084 whole entry): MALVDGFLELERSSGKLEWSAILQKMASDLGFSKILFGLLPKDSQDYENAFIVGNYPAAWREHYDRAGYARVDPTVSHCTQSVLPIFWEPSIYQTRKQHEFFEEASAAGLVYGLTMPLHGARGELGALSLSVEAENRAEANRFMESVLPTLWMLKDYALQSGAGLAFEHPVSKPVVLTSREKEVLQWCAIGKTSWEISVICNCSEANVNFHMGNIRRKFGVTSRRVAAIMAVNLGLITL
The series can be described thus: cell-based. To be noted: E. coli-LasR; Library C primary agonism screen. In short, it runs like this: (§2)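 E. coli DH5α carrying pJN105L/pSC11 grown to OD600 0.3, LasR expression induced with arabinose (4 mg/mL), then incubated with AHLs at 37 °C to OD600 0.45. LasR activity read by β-galactosidase reporter assay; IC50/EC50 from sigmoidal dose-response fits.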

The target of series [4] is T2, LuxR. The series can be described thus: cell-based. Also on record: species or system Vibrio fischeri. The conditions noted are these: for EC50: LuxR EC50, V. fischeri ES114 (Δ-luxI). The method, boiled down:
as §1

The target in series [5] is T3, LasR. Kind of series: cell-based. Format: cell-based. To be noted: E. coli-LasR; Library C primary antagonism screen. In short, it runs like this:
as §2

Series [6] relates to wild-type V. fischeri ES114. Kind of series: Luminescence dose response in wild-type V. fischeri ES114. Format: cell-based, Vibrio fischeri. To be noted: relative to OHHL. The method, then:
(§3) Vibrio fischeri assay procedures. For primary agonism assays, an appropriate amount of concentrated control or PHL (11) stock solution, to give a final concentration of 200 μM, was added to wells in a 96-well multititer plate. An overnight culture of V. fischeri ES114 (WT, Δ-luxI or Δ-luxR) was diluted 1:10 with LBS medium. A-200 μL portion of the diluted culture was added to each well of the plate. Plates were grown at RT with shaking (200 rpm) until the OD600=0.35-0.4 (4-6 h). Luminescence then was measured and normalized to cell density per well. […] Similar methods were used for dose response assays, except the concentrations of controls and PHLs 11 used were between 0.02 and 2×10^5 nM. All assays were performed in triplicate. IC50 and EC50 values were calculated using GraphPad Prism software using a sigmoidal curve fit.

The subject of series [7] is V. fischeri ES114 (Δ-luxR). Kind of series: Luminescence assay in Δ-luxR derivative of V. fischeri ES114. Format: cell-based, Vibrio fischeri. The procedure:
as §3

The test system of the next series is Euprymna scolopes squid. The series can be described thus: Preliminary experiments in squid / invertebrate model systems (tolerance, activity in vivo).
The next series has as its system elastase B production. Kind of series: microbe, parasite or virus in culture. Format: cell-based, Pseudomonas aeruginosa. The conditions noted are these: P. aeruginosa PAO1; 200 μM. The procedure: Elastase B production assay in P. aeruginosa. Elastase B activity in P. aeruginosa was measured according to a previously reported method, with the following modifications. P. aeruginosa PAO1 was grown overnight in LB media at 37° C., after which it was diluted to an OD600=0.1. Portions (2 mL) of this culture was added to test tubes containing synthetic compounds to give final concentrations of 20 μM or 200 μM and incubated for 12-14 h at 37° C. with 200 rpm shaking. The OD600 was measured for each tube, after which the contents of the tubes were filtered through a […] Whatman filter to remove all cellular matter. A 100 μL-aliquot of the supernatant was added to 900 μL of an Elastin Congo Red Solution (5 mg of Elastin Congo red substrate per 1 mL of 100 mM Tris-HCl, 1 mM CaCl2 (pH 7.2)) and incubated for 12 h at 37° C. with 250 rpm shaking. The contents of these tubes were then filtered in order to remove unreacted Elastin Congo red substrate. Elastase B activity was then calculated (normalized) by dividing the absorbance of the cleaved Congo red (OD492) by the cell density (OD600 of the cells before first filtration).
Elastase B production assay in P. aeruginosa. Elastase B activity in P. aeruginosa was measured according to a previously reported method, with the following modifications. P. aeruginosa PAO1 was grown overnight at 37° C. and then diluted 1:10 with fresh LB medium. Portions (2 mL) of this culture were added to test tubes containing synthetic compounds to give final compound concentrations of 20 μM or 200 μM. The tubes were incubated for 12-14 h at 37° C. The OD600 was measured for each tube, after which the contents of the tubes were filtered through a 0.2 μm Whatman filter to remove all cellular matter. A 100 μL aliquot of the supernatant was added to 900 μL of an elastin-Congo red solution (5 mg of elastin-Congo red substrate per 1 mL of buffer (100 mM Tris-HCl, 1 mM CaCl2, pH 7.2)) and incubated for 12 h at 37° C. with 250 rpm shaking. The contents of these tubes were then filtered in order to remove unreacted elastin-Congo red substrate, and the supernatant containing cleaved Congo red was isolated. A 200 μL aliquot of the supernatant was added to a 96-well multititer plate, and the OD492 was measured. Elastase B activity was calculated by dividing the absorbance of the cleaved Congo red solution (OD492) by the cell density (OD600 of the cells before first filtration).

Series [8] has as its target T4, LuxR (Aliivibrio fischeri, UniProt P12746).
T4 construct: expressed in transfected cells; host or cells: E. coli JM109 (pSB401)
Kind of series: LuxR luminescence antagonism and agonism assays in E. coli JM109 (pSB401). It is filed as cell-based, Vibrio fischeri. To be noted: EC50 of autoinducer in E. coli JM109 (pSB401).
Method: Competitive inhibition assays were performed in the presence of both OHHL and PHLs 11 (at a 1:1 ratio), while agonism assays were performed with PHLs alone.
Luminescence assays. For agonism assays, an appropriate amount of AHL stock solution was added into a 96-well plate. […] A 200-μL portion of the diluted culture was added to each well of the plate. […] Luminescence was measured using a multilabel plate reader and normalized to cell density. […] All assays were performed in triplicate. Graphpad Prism software was used to calculate IC50 and EC50 values.
E. coli assay procedures. […] An overnight culture of E. coli JM109 (pSB401) was diluted 1:10 with LB medium (containing 10 μg/mL tetracycline). A 200-μL portion of the diluted culture was added to each well of the plate. Plates were grown at 30° C. with shaking (200 rpm) until the OD600=0.35-0.4 (6-8 h). Luminescence then was measured and normalized to cell density per well. […] All assays were performed in triplicate.

T4 sequence (P12746 whole entry): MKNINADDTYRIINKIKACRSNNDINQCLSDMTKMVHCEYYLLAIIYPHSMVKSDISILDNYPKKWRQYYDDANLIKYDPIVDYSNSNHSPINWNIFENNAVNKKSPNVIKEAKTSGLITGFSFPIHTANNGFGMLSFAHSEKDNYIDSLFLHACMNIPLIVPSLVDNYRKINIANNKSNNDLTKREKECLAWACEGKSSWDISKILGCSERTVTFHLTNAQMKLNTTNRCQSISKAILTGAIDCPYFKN
Sequence of QscR:DNA binding (PA1897 promoter) (G3XD77 entry or part of it): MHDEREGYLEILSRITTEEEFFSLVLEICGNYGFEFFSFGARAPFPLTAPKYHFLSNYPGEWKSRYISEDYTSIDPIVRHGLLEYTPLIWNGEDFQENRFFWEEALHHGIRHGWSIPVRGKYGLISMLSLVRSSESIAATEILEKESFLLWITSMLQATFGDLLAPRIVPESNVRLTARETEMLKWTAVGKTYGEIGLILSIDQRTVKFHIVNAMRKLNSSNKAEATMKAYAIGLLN

`CCOc1ccc(CC(=O)N[C@H]2CCOC2=O)cc1` [C25]: the “Activation (%)” value at TraR (A. tumefaciens-TraR, Library C primary agonism screen) turned out to be 0%; at LasR [3] it was 0%; on LuxR [4] (V. fischeri-LuxR, Library C primary agonism screen), 2%. Moreover, the “Inhibition (%)” value was found to be 35% on TraR (A. tumefaciens-TraR, Library C primary antagonism screen); 55% at LuxR [1] (V. fischeri-LuxR, Library C primary antagonism screen); 15% on LasR [5]. In addition, the “inhibition of OdDHL-dependent QscR:DNA binding” value in [2] is reported as “capable of inhibiting OdDHL (1)-dependent QscR:DNA binding”.
Take `O=C(Cc1cccc([N+](=O)[O-])c1)N[C@H]1CCOC1=O` [11n, N-(3-nitro-phenylacetanoyl)-L-homoserine lactone]: on LuxR [1] (5 μM synthetic ligand against 5 μM OHHL, V. fischeri ES114 (Δ-luxI), normalized to OHHL), the “V. fischeri-LuxR Inhibition [%]” value is recorded as “no inhibitory activity”. For the same compound, in series [6], the “activity in wild-type V. fischeri” value is recorded as “similarly heightened activity”. Besides, in series [7], the “luminescence / activity in Δ-luxR derivative of V. fischeri ES114” value is reported as “Neither 11n nor OHHL induced any detectable luminescence”. For the same compound, the “EC50 lower / activity higher relative to OHHL” value on LuxR [4] (LuxR) is on record as 10 fold. At LuxR [4], the EC50 was 300 nM. Besides, at LuxR [4] (primary agonism assay, 200 μM, same concentration as OHHL), the “luminescence induced higher than native ligand OHHL” value amounted to 29%. The activation at 200 µM at LuxR [4] (read-out: V. fischeri-LuxR Activation [%], 200 μM ligand, V. fischeri ES114 (Δ-luxI), normalized to OHHL) is at least 60%. In the series on Euprymna scolopes squid, the “activity / modulation of quorum sensing in vivo” value is on record as “active in vivo” and the “tolerance in squid / invertebrate model systems” value is reported as “well tolerated”.
Consider `O=C(CCCc1c[nH]c2ccccc12)N[C@H]1CCOC1=O` [compound 9, indole AHL, reference compound], for which, at TraR (10 μM ligand, A. tumefaciens WCF47 (pCF372), normalized to OOHL), the “A. tumefaciens-TraR Activation [%]” value was found to be 0%. Further, in the series with elastase B production, the “elastase B production inhibition” value turned out to be 66%.
Turning to `CCCC(=O)CC(=O)N[C@H]1CCOC1=O` [compound 3, N-(3-oxo-hexanoyl)-L-homoserine lactone, reference compound], the EC50 is ~10 nM and 20 nM on LuxR [8]; 3000 nM and ~5000 nM at LuxR [4].
